Data reported in PMC10683482, “Offsetting Low-Affinity Carbohydrate Binding with Covalency to Engage Sugar-Specific Proteins for Tumor-Immune Proximity Induction” (ACS Central Science, 2023).

System: Hek-PSMA cells
Assay: ADCC reporter assay with polyclonal human IgG, column step (Figure 3)
Format: cell-based
Settings: 50 μM compound with 230 μM human IgG 72 h, column washing step
Protocol: Next, we investigated the potential ability of rhamnose cARMs and noncovalent ARM analogs to induce immune proximity with cancer targets. […] These compounds were then evaluated for their capacity to activate immune cells against PSMA cancer targets (Hek-PSMA cells) in an ADCC reporter assay (Figure 3). […] The formation of this complex may be prevented by the alkyl linker, which could adopt a fixed conformation via hydrophobic collapse.
Figure 3 ADCC reporter assay to evaluate cARM vs ARM immune function using polyclonal anti-rhamnose antibodies. Top: chemical structures of compounds evaluated. Bottom: ADCC assay. Each cARM/ARM (50 μM) was incubated with polyclonal human IgG (230 μM) for 72 h and passed through a Millipore centrifugation column. Antibody solutions were then resuspended to experimental concentrations and added to preplated Hek-P cells (50,000 cells). To this cell solution, luciferase-expressing jurkat cells were added and incubated for 24 h. Activation of jurkat was determined as a measure of luciferase expression with a BioGlo assay kit.
General Notes and Materials
ELISA - General notes and Materials […]
Plate absorbance was measured at 450 nm using a Tecan Spark Plate Reader. […]
Pre-cast Tris-Glycine Gels (4-20%) were purchased from Fisher Scientific (XP04202BOX). […] Gel fluorescence was imaged using a GE Typhoon imager (Cy2 channel for fluorescein, Cy5 channel for A647). […]

Compound | immune activation (jurkat luciferase)
C[C@@H]1O[C@@H](OCc2cn(CCCNC(=O)OCCNC(=O)CCCCCNC(=O)CCCCCNC(=O)CCCCCNC(=O)NCCCC[C@H](NC(=O)N[C@@H](CCC(=O)O)C(=O)O)C(=O)O)nn2)[C@H](O)[C@H](O)[C@H]1O [compound 11] | failed to induce immune activation
C[C@@H]1O[C@@H](OCc2cn(CCc3cn(C(=O)OCCNC(=O)CCCCCNC(=O)CCCCCNC(=O)CCCCCNC(=O)NCCCC[C@H](NC(=O)N[C@@H](CCC(=O)O)C(=O)O)C(=O)O)cn3)nn2)[C@H](O)[C@H](O)[C@H]1O [compound 10] | successfully mediated specific immune activation
